pKi: −log10 of the molar value.
Molecular target: not listed separately
Test: Ability to displace radioligand [3H](-)-cytisine from Neuronal nicotinic receptor in rat brain membrane was determined.
Assay type: cell membranes

SMILES	pKi
Clc1ccc(OC[C@H]2CCN2)cn1 [TEBANICLINE]	10.30

Molecular target: Neuronal acetylcholine receptor
Test: Ability to displace radioligand [3H](-)-cytisine from Nicotinic acetylcholine receptor in rat brain membrane.
Assay type: cell membranes

SMILES	pKi
C[C@@H](N)COc1ccc(Cl)nc1	8.28
C[C@@H](N)COc1ccc(F)nc1	8.18
N[C@H](COc1cnc(Cl)c(/C=C/c2ccncc2)c1)Cc1ccccc1	8.00
NCCOc1cncc(Cl)c1	6.85
CC[C@H](N)COc1ccc(Cl)nc1	7.82
CN[C@H](C)COc1ccc(F)nc1	7.96
C[C@@H](N)COc1cnc(Cl)c(Br)c1	8.82
CN[C@@H](C)COc1ccc(Cl)nc1	7.39
C[C@@H](N)COc1cnc(Cl)c(/C=C/c2ccncc2)c1	10.09
Cc1ccc(OCCN(C)C)cn1	6.85
CNCCOc1cccnc1	7.77
C[C@@H](COc1cnc(Cl)c(/C=C/c2ccncc2)c1)N(C)C	9.43
CC[C@@H](COc1cnc(Cl)c(/C=C/c2ccncc2)c1)N(C)C	8.44
CC[C@H](N)COc1cnc(Cl)c(/C=C/c2ccncc2)c1	9.74
CC[C@H](N)COc1ccc(F)nc1	7.41
C[C@@H](COc1cnc(Cl)c(Br)c1)N(C)C	7.51
C[C@H](COc1ccc(F)nc1)N(C)C	7.15
CN[C@H](COc1cccnc1)Cc1ccccc1	6.16
CC[C@@H](COc1ccc(F)nc1)NC	6.66
CN(C)[C@H](COc1cnc(Cl)c(/C=C/c2ccncc2)c1)Cc1ccccc1	8.34

SMILES	pKi
CNCCOc1cnc(Cl)c(Cl)c1	7.89
CN(C)CCOc1cncc(Cl)c1	7.13
CNCCOc1ccc(Cl)nc1	7.66
CN[C@H](COc1cnc(Cl)c(/C=C/c2ccncc2)c1)Cc1ccccc1	8.59
C[C@@H](COc1ccc(F)nc1)N(C)C	7.00
C[C@H](N)COc1ccc(F)nc1	8.06
CN[C@@H](C)COc1cnc(Cl)c(Br)c1	7.96
CNCCOc1cnc(Cl)c(Br)c1	7.84
CN[C@@H](C)COc1ccc(F)nc1	7.16
Cc1cc(OC[C@H](C)N)cnc1Cl	9.28
Cc1cc(OC[C@@H](C)N(C)C)cnc1Cl	8.14
CN[C@H](COc1cnc(Cl)c(Br)c1)Cc1ccccc1	7.07
CC[C@H](N)COc1cnc(Cl)c(Br)c1	7.82
COc1ccc(OCCN(C)C)cn1	6.39
CN(C)CCOc1cncc([N+](=O)[O-])c1	6.59
CN[C@@H](C)COc1cnc(Cl)c(C)c1	8.26
CN[C@H](C)COc1ccc(Cl)nc1	8.23
Cc1cc(OC[C@@H](C)N)cnc1Cl	9.01
CNCCOc1cncc([N+](=O)[O-])c1	6.25
CN(C)CCOc1cncc(Br)c1	7.30

SMILES	pKi
Cc1cc(OC[C@H](C)N(C)C)cnc1Cl	8.02
CN[C@H](C)COc1cnc(Cl)c(C)c1	9.24
CN[C@H](C)COc1cnc(Cl)c(Br)c1	8.82
C[C@H](COc1cnc(Cl)c(Br)c1)N(C)C	7.92
N[C@H](COc1cnc(Cl)c(Br)c1)Cc1ccccc1	7.00
CN(C)CCOc1cncc(C(F)(F)F)c1	6.60
CN(C)[C@@H](CCCl)COc1cncc(C(F)(F)F)c1	8.26
CNCCOc1cncc(Cl)c1	7.43
C[C@H](COc1cnc(Cl)c(/C=C/c2ccncc2)c1)N(C)C	10.00
CNCCOc1ccc(OC)nc1	6.21
CN(C)CCOc1ccc(Cl)nc1	7.10
CN(C)CCOc1cnc(Cl)c(Cl)c1	7.80
CNCCOc1ccc(C)nc1	7.37
CN(C)CCOc1cnc(Cl)c(Br)c1	8.15
CN[C@H](C)COc1cnc(Cl)c(/C=C/c2ccncc2)c1	10.11
C[C@H](N)COc1cnc(Cl)c(/C=C/c2ccncc2)c1	10.12
CN(C)[C@H](COc1cnc(Cl)c(Br)c1)Cc1ccccc1	6.49
CNCCOc1cncc(N)c1	7.57
C[C@H](N)COc1ccc(Cl)nc1	8.35
C[C@H](N)COc1cnc(Cl)c(Br)c1	8.82
